This note sets out measurements from US10994015B2, “EGFR proteolysis targeting chimeric molecules and associated methods of use” (Arvinas Operations, Inc., priority 2016, dated 2021).

For assay [1], the target named is EGFR WT (Homo sapiens (Human), UniProt P00533). The experiment in a line: TR-FRET assay for ERBB kinases. The format is biochemical. The note with it: geometric mean if measured more than once. The method, boiled down: (§1)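 Kinase pre-incubated 10 min with compound in pH 7.5 HEPES buffer with MgCl2 and DTT, then reacted 10 min at room temperature with fluorescein-poly-GluTyr and ATP (substrate mix at 3 mM ATP, 30 uM peptide). EDTA-quenched; Tb-pY20 antibody TR-FRET read at 520/490 nm.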
Background: In TR-FRET formats the signal depends on donor and acceptor labels being close together.

Assay [2] concerns the target EGFR L858R/T790M/C797S (Homo sapiens (Human), UniProt P00533, C797S/L858R/T790M). The experiment in a line: TR-FRET assay for ERBB kinases. The conditions noted are these: geometric mean if measured more than once. The assay is classed as biochemical. The gist of the method:
as §1

For assay [3], the target named is EGFR L858R/T790M (Homo sapiens (Human), UniProt P00533, L858R/T790M). The experiment in a line: TR-FRET assay for ERBB kinases. The format is biochemical. The note with it: geometric mean if measured more than once. The gist of the method:
as §1

In assay [4] the target is EGFR Δ19/746/750 (Homo sapiens (Human), UniProt P00533, DEL746-750). The assay can be described thus: TR-FRET assay for ERBB kinases. The assay is classed as biochemical. The conditions noted are these: geometric mean if measured more than once. The method, boiled down: (§2)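 Compounds pre-incubated 10 min with kinase in HEPES pH 7.5 buffer (MgCl2, DTT, Pluronic), then reaction started with substrate mix (3 mM ATP, 30 µM fluorescein-poly-GluTyr, stock levels) for 10 min at room temperature. EDTA-quenched, detected by Tb-pY20 antibody TR-FRET (520/490 nm emission).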
Sequence of EGFR Δ19/746/750 (P00533 other isoform, or with tags, fused parts or gaps del 1-694/del 746-750 limits assumed): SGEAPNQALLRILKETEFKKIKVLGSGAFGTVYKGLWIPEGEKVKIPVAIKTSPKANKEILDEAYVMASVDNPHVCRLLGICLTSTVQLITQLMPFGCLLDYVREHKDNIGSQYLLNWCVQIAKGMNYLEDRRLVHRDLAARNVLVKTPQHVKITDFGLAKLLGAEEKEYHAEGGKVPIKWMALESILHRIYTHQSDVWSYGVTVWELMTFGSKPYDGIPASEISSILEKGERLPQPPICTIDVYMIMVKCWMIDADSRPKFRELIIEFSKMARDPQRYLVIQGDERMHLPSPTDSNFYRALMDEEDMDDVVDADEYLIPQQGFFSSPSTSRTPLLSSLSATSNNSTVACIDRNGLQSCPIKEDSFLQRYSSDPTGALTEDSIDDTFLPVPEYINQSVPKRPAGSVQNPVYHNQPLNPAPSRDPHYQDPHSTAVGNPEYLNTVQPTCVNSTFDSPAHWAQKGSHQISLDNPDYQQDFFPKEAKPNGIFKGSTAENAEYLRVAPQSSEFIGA

The target in assay [5] is EGFR Δ19/746/750 T790M (Homo sapiens (Human), UniProt P00533, DEL746-750/T790M). The assay can be described thus: TR-FRET assay for ERBB kinases. The assay is classed as biochemical. The conditions noted are these: geometric mean if measured more than once. The gist of the method: as §2
Sequence of EGFR Δ19/746/750 T790M (P00533 other isoform, or with tags, fused parts or gaps T790M/del 1-694/del 746-750 limits assumed): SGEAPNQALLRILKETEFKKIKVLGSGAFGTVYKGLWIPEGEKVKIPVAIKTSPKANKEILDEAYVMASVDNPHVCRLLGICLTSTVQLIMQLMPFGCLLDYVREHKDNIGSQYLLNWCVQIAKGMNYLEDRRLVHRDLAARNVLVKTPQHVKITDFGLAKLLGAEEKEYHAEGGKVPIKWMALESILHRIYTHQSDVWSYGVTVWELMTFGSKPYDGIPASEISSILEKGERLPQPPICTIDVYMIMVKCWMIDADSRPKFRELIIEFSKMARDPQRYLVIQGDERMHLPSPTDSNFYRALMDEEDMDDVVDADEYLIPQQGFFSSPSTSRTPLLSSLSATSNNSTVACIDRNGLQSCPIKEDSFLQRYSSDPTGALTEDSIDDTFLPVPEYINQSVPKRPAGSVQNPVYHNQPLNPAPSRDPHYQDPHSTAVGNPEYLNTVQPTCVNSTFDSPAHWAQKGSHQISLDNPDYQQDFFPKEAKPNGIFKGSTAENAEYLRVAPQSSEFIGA
In assay [6] the target is EGFR L858R/T790M/C797S triple mutant (H520*) (Homo sapiens (Human), UniProt P00533, C797S/L858R/T790M). The experiment in a line: EGFR protein degradation assay (Western blot). The format is cell-based. The note with it: 72 hours, 300 nM to 10 nM. The method, boiled down:
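EGFR loss in the triple-mutant line measured by immunoblot: clarified lysates normalised by BCA, run on 4-12% Bis-Tris gels, blotted to PVDF, probed with HRP anti-rabbit secondary. Before lysis, cells were dosed from 1, 0.3, 0.1, 0.03 and 0.01 mM DMSO stocks (not final concentrations) after overnight culture at 37° C.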
Background: A western blot detects proteins with antibodies after separation by electrophoresis.

Assay [7] deals with EGFR Exon20NPG (Homo sapiens (Human), UniProt P00533, INS770NPG). The assay can be described thus: TR-FRET assay for ERBB kinases. The assay is classed as biochemical. The conditions noted are these: geometric mean if measured more than once. The method, boiled down:
as §2

Assay [8] addresses EGFR Exon 20 ASV (HeLa*) (Homo sapiens (Human), UniProt P00533, DUP767-769). The experiment in a line: EGFR protein degradation assay (Western blot). The assay is classed as cell-based. The note with it: 72 hours, 300 nM to 10 nM.
For assay [9], the target named is EGFR-wt (MDA-MB-231 or MCF7 or A549 or OVCAR8) (Homo sapiens (Human), UniProt P00533). The assay can be described thus: EGFR protein degradation assay (Western blot). The note with it: 72 hours, 300 nM to 10 nM. The format is cell-based. The gist of the method: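 Cells carrying the relevant EGFR form were plated at 300,000 per well in 6-well plates and left overnight to attach. For harvest, cells were rinsed once in ice-cold PBS and lysed in 400 μl lysis buffer containing protease inhibitors. Lysates were cleared at 10 000 rpm for 10 minutes and their protein content measured by BCA. Then 10 μg per sample was separated by SDS/PAGE at 165V for 2 hours, and EGFR was detected by ECL on a Chemidoc.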

Sequence of EGFR L858R/T790M (P00533 25-1210 T790M/L858R): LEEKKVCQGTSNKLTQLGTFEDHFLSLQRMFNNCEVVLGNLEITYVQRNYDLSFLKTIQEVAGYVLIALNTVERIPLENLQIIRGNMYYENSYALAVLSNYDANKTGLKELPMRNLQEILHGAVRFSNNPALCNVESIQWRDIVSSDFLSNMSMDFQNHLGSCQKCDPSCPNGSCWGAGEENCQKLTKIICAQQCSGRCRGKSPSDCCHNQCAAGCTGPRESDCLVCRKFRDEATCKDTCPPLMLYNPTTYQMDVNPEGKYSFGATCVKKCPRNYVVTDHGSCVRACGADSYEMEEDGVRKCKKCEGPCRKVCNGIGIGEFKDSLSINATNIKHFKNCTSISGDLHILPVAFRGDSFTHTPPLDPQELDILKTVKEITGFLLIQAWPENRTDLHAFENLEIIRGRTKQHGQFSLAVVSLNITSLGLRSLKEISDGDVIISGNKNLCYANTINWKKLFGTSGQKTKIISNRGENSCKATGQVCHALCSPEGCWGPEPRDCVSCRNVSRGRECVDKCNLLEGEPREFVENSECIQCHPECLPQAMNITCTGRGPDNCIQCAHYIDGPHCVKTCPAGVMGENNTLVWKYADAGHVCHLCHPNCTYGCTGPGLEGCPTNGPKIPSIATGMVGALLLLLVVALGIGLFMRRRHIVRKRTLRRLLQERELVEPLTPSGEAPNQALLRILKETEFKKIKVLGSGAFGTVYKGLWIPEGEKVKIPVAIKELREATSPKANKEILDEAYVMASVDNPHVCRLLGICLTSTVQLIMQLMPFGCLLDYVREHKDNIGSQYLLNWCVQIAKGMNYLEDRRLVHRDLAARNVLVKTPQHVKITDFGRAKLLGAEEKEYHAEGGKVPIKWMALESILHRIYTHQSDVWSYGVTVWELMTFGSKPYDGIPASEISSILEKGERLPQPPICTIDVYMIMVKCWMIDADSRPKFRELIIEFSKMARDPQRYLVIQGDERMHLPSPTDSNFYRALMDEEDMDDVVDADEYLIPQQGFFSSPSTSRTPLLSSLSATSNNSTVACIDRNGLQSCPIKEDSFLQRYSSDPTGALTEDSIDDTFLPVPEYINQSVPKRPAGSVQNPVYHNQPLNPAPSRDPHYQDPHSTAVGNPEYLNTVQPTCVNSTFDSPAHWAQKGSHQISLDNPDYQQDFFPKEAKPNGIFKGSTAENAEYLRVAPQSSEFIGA
Sequence of EGFR L858R/T790M/C797S triple mutant (H520*) (P00533 25-1210 T790M/C797S/L858R): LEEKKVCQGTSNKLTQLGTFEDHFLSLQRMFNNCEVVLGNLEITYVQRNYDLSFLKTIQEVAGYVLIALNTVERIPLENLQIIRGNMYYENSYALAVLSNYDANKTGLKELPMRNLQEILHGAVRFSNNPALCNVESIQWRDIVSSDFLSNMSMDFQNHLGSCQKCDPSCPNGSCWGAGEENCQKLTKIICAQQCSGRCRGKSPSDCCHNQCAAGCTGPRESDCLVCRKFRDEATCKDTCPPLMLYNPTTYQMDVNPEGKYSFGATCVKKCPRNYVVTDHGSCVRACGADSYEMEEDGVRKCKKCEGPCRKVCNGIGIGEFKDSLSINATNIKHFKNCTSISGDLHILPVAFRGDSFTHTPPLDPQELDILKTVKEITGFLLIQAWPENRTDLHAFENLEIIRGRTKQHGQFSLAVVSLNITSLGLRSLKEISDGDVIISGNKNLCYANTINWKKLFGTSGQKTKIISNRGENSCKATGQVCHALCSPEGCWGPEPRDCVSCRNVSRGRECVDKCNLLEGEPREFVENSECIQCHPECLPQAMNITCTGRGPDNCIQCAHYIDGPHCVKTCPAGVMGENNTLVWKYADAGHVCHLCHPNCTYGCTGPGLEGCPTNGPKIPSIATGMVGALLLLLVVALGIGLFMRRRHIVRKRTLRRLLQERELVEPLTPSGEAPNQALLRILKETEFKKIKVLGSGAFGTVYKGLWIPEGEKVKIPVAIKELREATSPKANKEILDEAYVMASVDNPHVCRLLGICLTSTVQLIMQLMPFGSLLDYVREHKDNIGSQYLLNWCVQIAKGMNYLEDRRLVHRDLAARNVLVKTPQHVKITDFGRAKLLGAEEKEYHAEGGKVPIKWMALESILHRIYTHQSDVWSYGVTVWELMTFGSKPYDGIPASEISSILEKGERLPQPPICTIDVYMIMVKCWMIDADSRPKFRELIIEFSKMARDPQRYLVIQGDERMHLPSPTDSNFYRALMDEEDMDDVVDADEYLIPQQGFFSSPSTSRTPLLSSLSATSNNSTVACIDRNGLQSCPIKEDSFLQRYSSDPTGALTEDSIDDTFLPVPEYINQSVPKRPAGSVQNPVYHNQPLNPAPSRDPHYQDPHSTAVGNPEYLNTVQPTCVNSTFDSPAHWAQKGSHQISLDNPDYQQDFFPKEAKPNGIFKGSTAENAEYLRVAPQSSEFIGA
Sequence of EGFR L858R/T790M/C797S (P00533 25-1210 T790M/C797S/L858R): as above
Sequence of EGFR Exon20NPG (P00533 other isoform, or with tags, fused parts or gaps del 1-694/ins NPG behind 770 limits assumed): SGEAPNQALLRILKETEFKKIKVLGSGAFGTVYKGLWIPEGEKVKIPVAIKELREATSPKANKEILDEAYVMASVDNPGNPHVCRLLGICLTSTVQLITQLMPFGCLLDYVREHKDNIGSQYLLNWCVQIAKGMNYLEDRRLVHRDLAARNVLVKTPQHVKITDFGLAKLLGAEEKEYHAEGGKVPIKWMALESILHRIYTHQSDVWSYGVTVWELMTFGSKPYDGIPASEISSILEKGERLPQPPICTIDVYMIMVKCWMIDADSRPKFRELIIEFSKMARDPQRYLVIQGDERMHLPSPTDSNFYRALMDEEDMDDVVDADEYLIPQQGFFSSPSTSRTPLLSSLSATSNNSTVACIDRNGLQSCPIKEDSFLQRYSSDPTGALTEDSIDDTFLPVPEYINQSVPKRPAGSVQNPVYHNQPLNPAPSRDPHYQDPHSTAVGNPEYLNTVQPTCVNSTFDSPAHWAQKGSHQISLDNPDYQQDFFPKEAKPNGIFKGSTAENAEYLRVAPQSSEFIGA

As to `COC1CCN(c2nccc(Nc3cc4c(cn3)nc(COCCN3CCN(c5ccc(OCCCN6CCN(c7ccc8c(c7)C(=O)N(C7CCC(=O)NC7=O)C8=O)CC6)cc5)CC3)n4C(C)C)n2)CC1` (stereo not drawn) [Example 301, 2-(2,6-dioxopiperidin-3-yl)-5-(4-(3-(4-(4-(2-((1-isopropyl-6-((2-(4-methoxypiperidin-1-yl)pyrimidin-4-yl)amino)-1H-imidazo[4,5-c]pyridin-2-yl)methoxy)ethyl)piperazin-1-yl)phenoxy)propyl)piperazin-1-yl)isoindoline-1,3-dione], the IC50 (in general, the concentration at which inhibition is half-maximal) in [1] turned out to be 2800 nM; in [2], 34 nM; in [3] it was 240 nM; in assay [4], 1600 nM; in assay [5] it was 270 nM. For the same molecule, the “EGFR protein remaining, EGFR L858R/T790M/C797S triple mutant” value in assay [6] is listed as “C (>80% EGFR protein remaining after 72 hours of incubation with the test compound at a concentration of 300 nM)”.
Turning to `Cc1ncsc1-c1ccc([C@H](C)NC(=O)[C@@H]2C[C@@H](O)CN2C(=O)[C@@H](NC(=O)COCCOCCOCCN2CCN(CCOCC#Cc3cccc4c3C(=O)N(C(C(=O)Nc3nccs3)c3cc(F)ccc3O)C4)CC2)C(C)(C)C)cc1` (stereo partly drawn) [compound 310], the IC50 in [1] is 140 nM; in assay [2], 22 nM; in assay [3] it was 110 nM; in [4], 6000 nM; in assay [5] it was 8400 nM. The “EGFR protein remaining, EGFR L858R/T790M/C797S triple mutant” value in [6] is “B (≤80% and >50% EGFR protein remaining after 72 hours of incubation with the test compound at a concentration between 300 nM and 10 nM)”.
`Cc1ncsc1-c1ccc([C@H](C)NC(=O)[C@@H]2C[C@@H](O)CN2C(=O)[C@@H](NC(=O)COCCN2CCN(CCOCCOCCOCC#Cc3cccc4c3C(=O)N(C(C(=O)Nc3nccs3)c3cc(F)ccc3O)C4)CC2)C(C)(C)C)cc1` (stereo partly drawn) [compound 311]: the IC50 in assay [1] was 97 nM; in [2], 16 nM; in [3] it was 65 nM; in assay [4] it was 9000 nM; in [5], 4600 nM. Besides, in [6], the “EGFR protein remaining, EGFR L858R/T790M/C797S triple mutant” value is “B (≤80% and >50% EGFR protein remaining after 72 hours of incubation with the test compound at a concentration between 300 nM and 10 nM)”.
`Cc1ncsc1-c1ccc([C@H](C)NC(=O)[C@@H]2C[C@@H](O)CN2C(=O)[C@@H](NC(=O)COCCOCCCNCC2CN(c3nn(C(C)C)c4cc(Nc5ccnc(-c6cnn(S(=O)(=O)C7CC7)c6)n5)ncc34)C2)C(C)(C)C)cc1` [compound 308]: the IC50 in assay [1] was found to be 120 nM; in assay [2] it was 0.27 nM; in [3] it was 0.91 nM; in assay [4], 53 nM; in assay [5], 2.1 nM. The “EGFR protein remaining, EGFR L858R/T790M/C797S triple mutant” value in assay [6] was “B (≤80% and >50% EGFR protein remaining after 72 hours of incubation with the test compound at a concentration between 300 nM and 10 nM)”.
`CC(C)n1nc(N2CC(CN[C@H]3C[C@H](Oc4ccc5c(c4)C(=O)N(C4CCC(=O)NC4=O)C5=O)C3)C2)c2cnc(Nc3ccnc(-c4cnn(S(=O)(=O)C5CC5)c4)n3)cc21` (stereo partly drawn) [compound 319]: the IC50 turned out to be 4.2 nM in assay [1]; 0.8 nM in assay [2]; 2.3 nM in assay [3]; 1.3 nM in assay [4]; 0.3 nM in assay [5]. Moreover, the “EGFR protein remaining, EGFR L858R/T790M/C797S triple mutant” value in assay [6] was “A (≤50% EGFR protein remaining after 72 hours of incubation with the test compound at a concentration between 300 nM and 10 nM)”.
Consider `CC(C)n1nc(N2CC(CN3CCN(CC4CCN(c5ccc6c(c5)C(=O)N(C5CCC(=O)NC5=O)C6=O)CC4)CC3)C2)c2cnc(Nc3ccnc(-c4cnn(S(=O)(=O)C5CC5)c4)n3)cc21` (stereo not drawn) [compound 314], for which the IC50 in assay [1] was 89 nM; in assay [2], 20 nM; in assay [3], 98 nM; in [4] it was 10000 nM; in assay [5], 5200 nM. For the same molecule, the “EGFR protein remaining, EGFR L858R/T790M/C797S triple mutant” value in assay [6] is on record as “C (>80% EGFR protein remaining after 72 hours of incubation with the test compound at a concentration of 300 nM)”.
Turning to `Cc1ncsc1-c1ccc([C@H](C)NC(=O)[C@@H]2C[C@@H](O)CN2C(=O)[C@@H](NC(=O)COCCCOc2ccc(N3CCN(CCOCc4nc5cnc(Nc6ccnc(-c7cnn(S(=O)(=O)C8CC8)c7)n6)cc5n4C(C)C)CC3)cc2)C(C)(C)C)cc1` [compound 306], the IC50 in assay [1] stood at 13000 nM; in assay [2], 16 nM; in assay [3], 53 nM; in [4] it was 380 nM; in [5], 21 nM. Moreover, in assay [6], the “EGFR protein remaining, EGFR L858R/T790M/C797S triple mutant” value was “A (≤50% EGFR protein remaining after 72 hours of incubation with the test compound at a concentration between 300 nM and 10 nM)”.
Consider `O=C1CCC(N2C(=O)c3ccc(OCCN4CCN(Cc5ccc(C6Cc7c(NCc8ccccc8Cl)ncnc7N6)cc5)CC4)cc3C2=O)C(=O)N1` (stereo not drawn) [compound 101], for which the IC50 was found to be 12 nM in assay [1], 3600 nM in assay [2], 3400 nM in assay [3] and 69 nM in assay [7]. The “EGFR protein remaining, EGFR Exon 20 ASV” value in assay [8] is “C (>80% EGFR protein remaining after 72 hours of incubation with the test compound at a concentration of 300 nM)”. Moreover, the “EGFR protein remaining, EGFR-wt” value in assay [9] is given as “C (>80% EGFR protein remaining after 72 hours of incubation with the test compound at a concentration of 300 nM)”.
For the molecule `CC(C)n1nc(N2CCN(CC3CCN(c4ccc5c(c4)C(=O)N(C4CCC(=O)NC4=O)C5=O)CC3)CC2)c2cnc(Nc3ccnc(-c4cnn(S(=O)(=O)C5CC5)c4)n3)cc21` (stereo not drawn) [compound 312], the IC50 amounted to 95 nM in [1]; 0.35 nM in [2]; 0.67 nM in assay [3]; 170 nM in assay [4]; 4.9 nM in assay [5]. Besides, the “EGFR protein remaining, EGFR L858R/T790M/C797S triple mutant” value in assay [6] is “B (≤80% and >50% EGFR protein remaining after 72 hours of incubation with the test compound at a concentration between 300 nM and 10 nM)”.
In the case of `O=C1CCC(N2C(=O)c3ccc(OCCOCCOCCOCCOCCOCCN4CCN(Cc5ccc(C6Cc7c(NCc8ccccc8Cl)ncnc7N6)cc5)CC4)cc3C2=O)C(=O)N1` (stereo not drawn) [compound 105], the IC50 in assay [1] is 970 nM; in assay [2], 24000 nM; in assay [3], above 30000 nM; in [7] it was 820 nM. Besides, the “EGFR protein remaining, EGFR Exon 20 ASV” value in assay [8] was “C (>80% EGFR protein remaining after 72 hours of incubation with the test compound at a concentration of 300 nM)”. Further, the “EGFR protein remaining, EGFR-wt” value in assay [9] is reported as “C (>80% EGFR protein remaining after 72 hours of incubation with the test compound at a concentration of 300 nM)”.
On to `O=C1CCC(N2C(=O)c3ccc(OCCOCCOCCN4CCN(Cc5ccc(-c6cc7c(NCc8ccccc8Cl)ncnc7[nH]6)cc5)CC4)cc3C2=O)C(=O)N1` (stereo not drawn) [Example 17, 5-(2-(2-(2-(4-(4-(4-((2-chlorobenzyl)amino)-7H-pyrrolo[2,3-d]pyrimidin-6-yl)benzyl)piperazin-1-yl)ethoxy)ethoxy)ethoxy)-2-(2,6-dioxopiperidin-3-yl)isoindoline-1,3-dione], for which the IC50 is 220 nM in assay [1], 4900 nM in assay [2], 7200 nM in assay [3] and 190 nM in [7]. In addition, the “EGFR protein remaining, EGFR Exon 20 ASV” value in assay [8] is “C (>80% EGFR protein remaining after 72 hours of incubation with the test compound at a concentration of 300 nM)”. Moreover, the “EGFR protein remaining, EGFR-wt” value in assay [9] is given as “C (>80% EGFR protein remaining after 72 hours of incubation with the test compound at a concentration of 300 nM)”.
Regarding `Cc1ncsc1-c1ccc(CNC(=O)[C@@H]2C[C@@H](O)CN2C(=O)[C@H](C(C)C)N2Cc3ccccc3C2=O)c(OCCOCCOCCOCCN2CCN(Cc3ccc(-c4cc5c(NCc6ccccc6Cl)ncnc5[nH]4)cc3)CC2)c1` [compound 109], the IC50 in assay [1] came to 180 nM; in assay [2], 8900 nM; in assay [3], 6000 nM; in assay [7] it was 580 nM. For the same molecule, the “EGFR protein remaining, EGFR Exon 20 ASV” value in [8] is “C (>80% EGFR protein remaining after 72 hours of incubation with the test compound at a concentration of 300 nM)”. Besides, the “EGFR protein remaining, EGFR-wt” value in assay [9] is recorded as “C (>80% EGFR protein remaining after 72 hours of incubation with the test compound at a concentration of 300 nM)”.
